The nature of series [1]: Henry solubility constant Hcp at 293 K (mol/(m3 Pa)).
Series [2] is described as follows: Henry solubility constant Hcp at 298.15 K (mol/(m3 Pa)).
[3] abbreviates: reference: Chiang et al. (1998).
Setting [4] is: reference: Pearson and McConnell (1975).
Setting [5] is: reference: Yurteri et al. (1987).
Setting [6] is: reference: Bissonette et al. (1990).
Setting [7] is: reference: Warner et al. (1980).
Setting [8] is: reference: Sheikheldin et al. (2001).
The mark [9] stands for this setting: reference: Dohnal and Fenclová (1995).
Setting [10] is: reference: De Maagd et al. (1998).
The mark [11] stands for this setting: reference: Bamford et al. (1999b).
Setting [12] is: reference: Munz and Roberts (1987).
Where [13] appears, read: reference: Vitenberg et al. (1975).
[14] abbreviates: reference: Schuhfried et al. (2011).
[15] abbreviates: reference: Mackay et al. (1979).

The structures appear in SMILES notation.

For `C=C(Cl)Cl` [1,1-dichloroethene], the figures for the “Henry solubility constant Hcp at 293 K” value in series [1] (setting [3]), in series [1] (setting [4]) and in series [1] (setting [5]) were 0.00044, 6.6e-05 and 0.00013, respectively. Moreover, the “Henry solubility constant Hcp” value came to 0.00034 in series [2] (setting [6]), 0.00014 in series [2] (reference: Ervin et al. (1980)), 0.00038 in series [2] (reference: Gossett (1987)) and 0.00066 in series [2] (setting [7]).

`OCCO` [1,2-ethanediol]: in series [1] (reference: Bone et al. (1983)), the “Henry solubility constant Hcp at 293 K” value stood at 4000. Moreover, in series [2] (reference: Butler and Ramchandani (1935)), the “Henry solubility constant Hcp” value was 160.

Regarding `Clc1ccc(Cl)cc1` [1,4-dichlorobenzene], the “Henry solubility constant Hcp at 293 K” value was 0.0025 in series [1] (setting [3]) and 0.0052 in series [1] (setting [5]). Also, the “Henry solubility constant Hcp” value in series [2] (reference: Li et al. (2008)) came out at 0.0033; in series [2] (setting [7]), 0.0036.

Take `Cc1cccc(O)c1C` [1-hydroxy-2,3-dimethylbenzene]: the “Henry solubility constant Hcp at 293 K” value in series [1] (setting [8]) was found to be 9.3. Also, in series [2] (setting [9]), the “Henry solubility constant Hcp” value worked out at 10.

With `Cc1ccc(O)c(C)c1` [1-hydroxy-2,4-dimethylbenzene], the “Henry solubility constant Hcp at 293 K” value in series [1] (setting [8]) is 6.6. Besides, in series [2] (setting [9]), the “Henry solubility constant Hcp” value stood at 4.9.

As to `c1ccc2c(c1)Cc1ccccc1-2` [2,3-benzindene], the “Henry solubility constant Hcp at 293 K” value in series [1] (setting [10]) was determined as 0.15. Further, the “Henry solubility constant Hcp” value is 0.079 in series [2] (setting [11]) and 0.084 in series [2] (setting [7]).

As to `Oc1ccc(Cl)cc1Cl` [2,4-dichlorophenol], the “Henry solubility constant Hcp at 293 K” value in series [1] (setting [8]) was found to be 3.4. Besides, the “Henry solubility constant Hcp” value in series [2] (reference: Tabai et al. (1997)) worked out at 6.6.

In the case of `Oc1ccccc1Cl` [2-hydroxychlorobenzene], in series [1] (setting [8]), the “Henry solubility constant Hcp at 293 K” value is 1.5. In addition, the “Henry solubility constant Hcp” value in series [2] (reference: Tabai et al. (1997)) came to 3.6.

On to `CN(C)N=O` [N-nitrosodimethylamine], for which the “Henry solubility constant Hcp at 293 K” value in series [1] (reference: Haruta et al. (2011)) is 4.1. For the same compound, the “Henry solubility constant Hcp” value in series [2] (reference: Klein (1982)) came to 6.1; in series [2] (reference: Thompson et al. (2018)), 0.29.

For the compound `FC(F)(Cl)Cl` [dichlorodifluoromethane], in series [1] (setting [4]), the “Henry solubility constant Hcp at 293 K” value was determined as 2.5e-05. Moreover, the “Henry solubility constant Hcp” value in series [2] (setting [12]) came out at 3.1e-05; in series [2] (reference: Park et al. (1982)), 2.9e-05; in series [2] (reference: Reichl (1995)), 3e-05; in series [2] (reference: Scharlin and Battino (1994)), 2.9e-05; in series [2] (reference: Scharlin and Battino (1995)), 2.9e-05; in series [2] (reference: Warner and Weiss (1985)), 2.9e-05.

For `ClC1=C(Cl)[C@]2(Cl)[C@@H]3[C@@H]4C[C@@H]([C@H]5O[C@@H]45)[C@@H]3[C@@]1(Cl)C2(Cl)Cl` [dieldrin], the “Henry solubility constant Hcp at 293 K” value in series [1] (reference: Slater and Spedding (1981)) worked out at 0.34. For the same compound, the “Henry solubility constant Hcp” value in series [2] (setting [7]) was 0.17.

As to `CCSSCC` [diethyl disulfide], the “Henry solubility constant Hcp at 293 K” value in series [1] (setting [13]) was 0.0047. Also, the “Henry solubility constant Hcp” value in series [2] (setting [14]) stood at 0.0037.

Take `CSC` [dimethyl sulfide]: the “Henry solubility constant Hcp at 293 K” value in series [1] (setting [13]) is 0.0061. Besides, the “Henry solubility constant Hcp” value in series [2] (reference: Barcellos da Rosa et al. (2003)) was 0.0064; in series [2] (reference: Bruneel et al. (2016)), 0.0047; in series [2] (reference: Coquelet and Richon (2005)) it was 0.0052; in series [2] (reference: Dacey et al. (1984)), 0.0055; in series [2] (reference: De Bruyn et al. (1995b)) it was 0.0047; in series [2] (reference: Gershenzon et al. (2001)), 0.0047. Besides, the “Henry solubility constant Hcp” value in series [2] (reference: Iliuta and Larachi (2005a)) was 0.0055; in series [2] (reference: Lovelock et al. (1972)), 0.0016; in series [2] (reference: Marin et al. (1999)), 0.016; in series [2] (reference: Pollien et al. (2003)), 0.0049; in series [2] (setting [14]), 0.0046; in series [2] (reference: Straver and de Loos (2005)), 0.0049. Also, the “Henry solubility constant Hcp” value in series [2] (reference: Wong and Wang (1997)) stood at 0.0042.

For the compound `CC#N` [ethanenitrile], the “Henry solubility constant Hcp at 293 K” value in series [1] (reference: Yu (1992)) was determined as 0.082. Moreover, the “Henry solubility constant Hcp” value in series [2] (reference: Bebahani et al. (2002)) came out at 0.49; in series [2] (reference: Benkelberg et al. (1995)) it was 0.53; in series [2] (reference: Hamm et al. (1984)), 0.53; in series [2] (reference: Ji and Evans (2007)) it was 0.52; in series [2] (reference: Snider and Dawson (1985)), 0.48.

With `NCCO` [ethanolamine], the “Henry solubility constant Hcp at 293 K” value in series [1] (reference: Bone et al. (1983)) stood at 60000. Also, in series [2] (reference: Kim et al. (2008)), the “Henry solubility constant Hcp” value is 4200.

As to `ClC(Cl)=C(Cl)C(Cl)=C(Cl)Cl` [hexachlorobutadiene], the “Henry solubility constant Hcp at 293 K” value in series [1] (setting [4]) came to 0.0004. For the same compound, the “Henry solubility constant Hcp” value in series [2] (setting [7]) amounted to 0.00096.

As for `OO` [hydrogen peroxide], the “Henry solubility constant Hcp at 293 K” value in series [1] (reference: Yoshizumi et al. (1984)) was 1400. Besides, the “Henry solubility constant Hcp” value was determined as 1100 in series [2] (reference: Huang and Chen (2010)); 670 in series [2] (reference: Hwang and Dasgupta (1985)); 990 in series [2] (reference: Lind and Kok (1994)); 820 in series [2] (reference: O’Sullivan et al. (1996)); 1200 in series [2] (reference: Rivera-Rios (2018)); 850 in series [2] (reference: Zhou and Lee (1992)).

For the compound `OCl` [hypochlorous acid], the “Henry solubility constant Hcp at 293 K” value in series [1] (reference: Blatchley et al. (1992)) is 9.1; in series [1] (reference: McCoy et al. (1990)) it was 9. In addition, the “Henry solubility constant Hcp” value in series [2] (reference: Hanson and Ravishankara (1991)) is 4.7; in series [2] (reference: Holzwarth et al. (1984)) it was 6; in series [2] (reference: Imagawa (1950)), 12; in series [2] (reference: Ourisson and Kastner (1939)) it was 6.4.

Consider `COP(=S)(OC)Oc1ccc([N+](=O)[O-])cc1` [methylparathion], for which, in series [1] (reference: Rice et al. (1997b)), the “Henry solubility constant Hcp at 293 K” value is 260. In series [2] (reference: Metcalfe et al. (1980)), the “Henry solubility constant Hcp” value was found to be 99.

As to `CCc1cccc(C)c1N(C(=O)CCl)C(C)COC` (stereo unspecified) [metolachlor], the “Henry solubility constant Hcp at 293 K” value in series [1] (reference: Rice et al. (1997b)) came out at 130. Besides, the “Henry solubility constant Hcp” value stood at 210 in series [2] (reference: Feigenbrugel et al. (2004a)) and 570 in series [2] (reference: Lau et al. (1995)).

`c1ccc2ccccc2c1` [naphthalene]: the “Henry solubility constant Hcp at 293 K” value amounted to 0.022 in series [1] (setting [10]) and 0.027 in series [1] (setting [5]). Further, the “Henry solubility constant Hcp” value worked out at 0.023 in series [2] (reference: Alaee et al. (1996)); 0.04 in series [2] (reference: Bobadilla et al. (2003)); 0.02 in series [2] (setting [15]); 0.022 in series [2] (reference: Schwarz and Wasik (1977)); 0.018 in series [2] (reference: Southworth (1979)); 0.026 in series [2] (reference: Webster et al. (1985)).

Regarding `CCC(=O)OO[N+](=O)[O-]` [peroxypropionyl nitrate], in series [1] (reference: Kames and Schurath (1995)), the “Henry solubility constant Hcp at 293 K” value came out at 0.029. Besides, the “Henry solubility constant Hcp” value in series [2] (reference: Easterbrook et al. (2023)) amounted to 0.016.

Regarding `c1ccc2c(c1)ccc1ccccc12` [phenanthrene], the “Henry solubility constant Hcp at 293 K” value in series [1] (setting [10]) came to 0.34. For the same compound, the “Henry solubility constant Hcp” value was determined as 0.21 in series [2] (reference: Alaee et al. (1996)); 0.16 in series [2] (setting [11]); 0.25 in series [2] (setting [15]); 0.27 in series [2] (reference: Odabasi et al. (2006)); 0.18 in series [2] (reference: Southworth (1979)).

Turning to `ClC(Cl)=C(Cl)Cl` [tetrachloroethene], the results for the “Henry solubility constant Hcp at 293 K” value in series [1] (setting [3]), in series [1] (setting [4]) and in series [1] (setting [5]) were 0.00062, 0.0005 and 0.00075, respectively. In addition, the “Henry solubility constant Hcp” value is 0.00062 in series [2] (setting [6]); 0.00062 in series [2] (reference: Chen et al. (2012)); 0.00057 in series [2] (reference: Ervin et al. (1980)); 0.0011 in series [2] (reference: Gossett (1980)); 0.00056 in series [2] (reference: Gossett (1987)); 0.00065 in series [2] (reference: Gossett et al. (1985)). Also, the “Henry solubility constant Hcp” value stood at 0.00048 in series [2] (reference: Knauss et al. (2000)); 0.00057 in series [2] (reference: Lincoff and Gossett (1984)); 0.00054 in series [2] (setting [12]); 0.00055 in series [2] (reference: Park et al. (1997)); 0.00061 in series [2] (reference: Peng and Wan (1997)); 0.00078 in series [2] (reference: Peng and Wan (1998)). In addition, the “Henry solubility constant Hcp” value in series [2] (reference: Robbins et al. (1993)) turned out to be 0.00058; in series [2] (reference: Shimotori and Arnold (2003)), 0.00058; in series [2] (reference: Tancrède and Yanagisawa (1990)), 0.00059; in series [2] (reference: Vane and Giroux (2000)), 0.0006; in series [2] (setting [7]) it was 0.00034.

Values taken from Sander's compilation of Henry's law constants.
